In ChEMBL document CHEMBL4004795, “Polycycloiridals with a Cyclopentane Ring from Iris tectorum” (J Nat Prod, 2017):

test system: BV-2; assay: Potency index, ratio of curcumin IC50 to compound IC50 for inhibition of LPS-induced nitric oxide production in mouse BV2 cells; type: functional

| SMILES | Ratio IC50 |
| --- | --- |
| CC(C)=CCC/C(C)=C\[C@H]1C=C(CO)[C@@H]2CC[C@]3([C@H](CCCO)/C(=C(/C)C=O)CC[C@]3(C)O)[C@@H]2O1 | 3 |

test system: BV-2; assay: Inhibition of LPS-induced nitric oxide production in mouse BV2 cells pretreated for 24 hrs followed by LPS-stimulation after 24 hrs by Griess assay; type: functional, cell-based

| IC50 | SMILES |
| --- | --- |
| > 10 µM | CC(/C=C/[C@@H]1[C@@H](C(C)(C)O)CC[C@@]1(C)O)=C\[C@H]1C[C@@]23[C@H](OCCC[C@@H]2/C(=C(\C)C=O)CC[C@]3(C)O)O1 |
| > 10 µM | CC(/C=C/[C@H]1[C@H](C(C)(C)O)CC[C@]1(C)O)=C\[C@H]1C[C@@]23[C@H](OCCC[C@@H]2/C(=C(\C)C=O)CC[C@]3(C)O)O1 |
| > 10 µM | C/C(C=O)=C1\CC[C@](C)(O)[C@]23C[C@H](/C=C(C)/C=C/[C@@H]4[C@@H](C(C)(C)O)CC[C@@]4(C)O)O[C@H]2OCCC[C@H]13 |

Further lines, the compound ahead of its results:

| SMILES | IC50 |
| --- | --- |
| CC(C)=CCC/C(C)=C\[C@H]1C=C(CO)[C@@H]2CC[C@]3([C@H](CCCO)/C(=C(/C)C=O)CC[C@]3(C)O)[C@@H]2O1 | 0.54 µM |
| COc1cc(/C=C/C(=O)CC(=O)/C=C/c2ccc(O)c(OC)c2)ccc1O [CURCUMIN] | 2.36 µM |
| C=C(C)[C@@H]1CC[C@](C)(O)[C@H]1/C=C/C(C)=C/[C@H]1C[C@@]23[C@H](OCCC[C@@H]2/C(=C(/C)C=O)CC[C@]3(C)O)O1 | > 10 µM |
| C=C(C)[C@H]1CC[C@@](C)(O)[C@@H]1/C=C/C(C)=C/[C@H]1C[C@@]23[C@H](OCCC[C@@H]2/C(=C(\C)C=O)CC[C@]3(C)O)O1 | > 10 µM |
| C=C(C)[C@H]1CC[C@@](C)(O)[C@@H]1/C=C/C(C)=C/[C@H]1C[C@@]23[C@H](OCCC[C@@H]2/C(=C(/C)C=O)CC[C@]3(C)O)O1 | > 10 µM |
